Earlier results in paper PMC8538057, “Direct Delivery of ANA-TA9, a Peptide Capable of Aβ Hydrolysis, to the Brain by Intranasal Administration” (Pharmaceutics, 2021).

Assays:
Aβ42 = conditions: also three Aβ fragment peptides, particularly Aβ11–29; cited from earlier work
Excerpt: Recently, we reported the proteolytic activity of the shorter synthetic peptides JAL-TA9 (YKGSGFRMI) and ANA-TA9 (SKGQAYRMI), derived from the Box A region of the Tob1 and ANA/BTG3 proteins. These peptides cleave Aβ42 and three Aβ fragment peptides, particularly Aβ11–29 originating from the central region, which is considered the core region of Aβ42 aggregation/oligomerization. We gave these peptides the general name Catalytide. Catalytides such as JAL-TA9 and ANA-TA9 are attractive candidate peptide drugs for a novel strategy for preventing and treating AD.

aged mice = conditions: i.n. administration; cited from earlier work
Excerpt: (§1) Nasal drug administration has several advantages over oral or i.v. administration, which include noninvasiveness, self-administration, short onset of action, and higher bioavailability due to the avoidance of hepatic first-pass metabolism. Therefore, interest has grown in i.n. drug administration as a route for the application of drugs, particularly peptides, for systemic delivery. In addition to the above advantages, active pharmaceutical ingredients applied to the nasal cavity can undergo not only systemic absorption but, also, direct delivery to the brain [33, 34, 35, 36]. The brain up ...

[1] = system: normal and cognitively impaired rats; conditions: i.n. administration; cited from earlier work
Excerpt: as §1

Sequence	cleavage of Aβ42 (proteolytic activity) (Aβ42)	effect on anxiety (aged mice)	effect on memory function [1]
YKGSGFRMI [JAL-TA9, Catalytide (catalytic peptide) … derived from the Box A region of Tob1 protein, cleaves Aβ42]	cleave Aβ42	–	–
NAPVSIPQ	–	decreases anxiety	improves memory function
